# Measurements as given in PubChem BioAssay AID1645848.
# Settings: buffer; pH 7.4; 6.0 h; 150.0 µM
row,Structure (SMILES),solubility kinetic [µg/mL]
1,COc1cccc(Nc2nc(-c3ccncc3)nc3ccccc23)c1,< 1
2,Cc1noc(C)c1C(=O)N1CCC2(CCCN(C(c3ccccc3)c3ccccc3)C2)CC1,1.15
3,Fc1cc(Nc2nc(-c3ccncc3)nc3ccccc23)ccc1-c1cncnc1,< 1
4,CNC1CCC(N(Cc2ccc(OC)c(-c3ccc(C#N)cc3)c2)C(=O)c2sc3ccccc3c2Cl)CC1 (stereo unspecified),16.7
5,COc1ccc(NC(=O)c2cccnc2C)cc1S(=O)(=O)Nc1ccc(Br)cc1,26.4
6,O=S(=O)(c1ccccc1)N1CCN(c2nc(-c3ccc(Br)cc3)cs2)CC1,1.23
7,Cc1ccc(C(=O)Nc2nc3nc(-c4ccccc4)cc(=O)n3[nH]2)cc1,2.64
8,O=S(=O)(Nc1nccs1)c1ccc(NCc2cccc(Cl)c2O)cc1,46.1
9,Cc1ccc(C)c(CN2CCC(CNC(=O)Nc3ccc(Br)cc3F)CC2)c1,27.9
10,Cc1cccc(S(=O)(=O)Nc2cnccc2C(=O)Nc2nc(-c3ccccc3)cs2)c1,21.8
11,CC(C)(C)c1ccc(SC2=NS(=O)(=O)c3ccccc32)cc1,< 1
12,O=C(CCCCn1c(=O)[nH]c2ccsc2c1=O)N1CCN(c2cccc(Cl)c2)CC1,11.9
13,Cc1ccc(C)c(S(=O)(=O)NCC2CN(Cc3ccccc3)CCO2)c1 (stereo unspecified),> 55
14,COc1ccc(CN2CCNc3cc(Nc4ccccc4)ncc3C2)cc1,45.4
15,CCOc1ccc(OCC)c(NC(=O)C(NS(=O)(=O)c2ccc(Br)s2)c2ccccc2)c1 (stereo unspecified),< 1
16,Fc1ccc(Nc2nc(-c3ccncc3F)nc3ccccc23)cc1F,< 1
17,Cc1ccc(-n2nc3c(=O)n(CCCC(=O)NCc4ccccc4F)nc(C)c3c2C)cc1,4.17
18,CCN1CCN(C(=O)c2cc(-c3ccc(F)cc3)c3nncn3n2)CC1,> 52
19,CC(=O)Nc1cccc(-c2csc(Nc3cc(C)ccn3)n2)c1,< 1
20,O=C(NCCCn1ccnc1)c1nc(-c2ccccc2)cc2[nH]ccc12,> 77
21,Cc1ccccc1C(=O)Nc1nc2c(s1)CC(C(C)(C)C)CC2 (stereo unspecified),< 1
22,Cc1ccc(C)c(CN2C(=O)c3ccccc3S(=O)c3ccc(C(=O)N4CCN(c5ccccc5F)CC4)cc32)c1 (stereo unspecified),< 1
23,CC[C@H](NC(=O)[C@H](C)NC)C(=O)N1C[C@@H](O)C[C@H]1Cc1c(-c2[nH]c3cc(F)ccc3c2C[C@@H]2C[C@H](O)CN2C(=O)[C@H](CC)NC(=O)[C@H](C)NC)[nH]c2cc(F)ccc12,75.2
24,Cc1cc(Nc2nc(-c3ccncc3)nc3ccccc23)n[nH]1,1.1

row,Structure (SMILES),solubility kinetic [µg/mL]
1,Clc1ccccc1-c1nc(NCc2ccc(-c3cccnc3)cc2)c2ccccc2n1,< 1
2,C[C@]12N[C@H](Cc3ccccc31)c1ccccc12,> 33
3,COc1ccc(C2CC(=O)Nc3nc(N)sc32)cc1OC (stereo unspecified),30.5
4,CCN1CCN(c2ccc3cc(S(=O)(=O)N4CCOCC4)ccc3n2)CC1,> 58
5,CN(C)CCNC(=O)c1nc2nc(-c3ccccc3)c(-c3cccc(F)c3)cc2n1C,51.3
6,COc1c(C)cc(NC(=O)c2nn(Cc3ccc(F)cc3)c3c2CN(C(=O)c2ccc[nH]2)C[C@]3(C)C(N)=O)cc1C,< 1
7,CCCc1nnc(NC(=O)c2nc(S(=O)(=O)Cc3ccc(C)cc3)ncc2Cl)s1,> 67
8,O=C(Nc1ncc(Cc2ccc(C(F)(F)F)cc2)s1)c1cnc(-c2ccccc2)o1,< 1
9,O=C(Nc1cccc(OC(F)(F)F)c1)c1cc(-c2ccc[nH]2)n[nH]1,10.8
10,Cc1nc(NC(=O)C2CC(=O)N(c3n[nH]c4cc(Br)ccc34)C2)sc1C (stereo unspecified),< 1
11,CCn1nnnc1Sc1ncnc2scc(-c3ccc(C)cc3)c12,3.32
12,NC(=O)C1CCN(c2nc(-c3cccc(Br)c3)cs2)CC1,20.5
13,Clc1ccc2ncc(-c3cccc(NC4CNC4)n3)n2c1,> 44
14,Cn1ccc2c(C(=O)NCCC(N)=O)nc(-c3cccc(CO)c3)cc21,> 78
15,COc1cc(/C=C2\C(=O)Nc3ccccc32)ccc1O,15
16,COc1cc(OC)c2c(=O)[nH]c(-c3cc(C)c(OCCO)c(C)c3)nc2c1,> 55
17,CN(C)C(=O)c1cc2cnc(Nc3ccc(N4CCNCC4)cn3)nc2n1C1CCCC1,> 64
18,NC(=O)Nc1cc(-c2ccc(CN3CCOCC3)cc2)sc1C(N)=O,14.3
19,CS(=O)(=O)Nc1cccc(-c2nccc(-n3ccnc3)n2)c1,> 47
20,CCN1C(=O)c2ccccc2S(=O)c2ccc(NC(=O)Cc3ccc(F)cc3)cc21 (stereo unspecified),< 1
21,Cc1cccc(N2CCN(C(=O)c3ccc4c(c3)C(O)CCCCCN4C)CC2)c1 (stereo unspecified),14.8
22,O=C(Cc1cccs1)NCc1nnc2ccc(-c3ccccc3)nn12,22
23,CCOc1ccccc1C(=O)NC1CCN(c2cc(C)cc(C)c2)C1=O (stereo unspecified),26.8
24,CC(C)(C)NS(=O)(=O)c1ccc(-c2ccc3[nH]nc(N)c3c2)cc1,> 51

row,Structure (SMILES),solubility kinetic [µg/mL]
1,Cc1c(C)n(Cc2ccc(-c3ccccc3C(=O)O)cc2)c2ccc(C(=O)N[C@@H](C)c3ccc([N+](=O)[O-])cc3)cc12,44
2,CN1CCN(C(=O)c2ccc3cc(CCNc4ncnc5ccc(C#N)cc45)ccc3c2)CC1,49.7
3,COc1cccc(C(=O)Nc2ccc([S+](=O)([O-])Nc3nccs3)cc2)c1O,2.23
4,N#Cc1ccccc1-c1csc(N2CCC(C(N)=O)CC2)n1,36.9
5,Cc1ccccc1-c1nc(NCc2ccc(-c3cccnc3)cc2)c2ccccc2n1,< 1
6,Cc1c(Cl)cccc1-n1ncc(C(=O)Nc2ccc(Br)cc2F)c1C1CCNCC1,> 72
7,COc1ccc(-c2cnc(N3CCC(C(N)=O)CC3)s2)cc1OC,18.8
8,Cn1cnc(S(=O)(=O)Nc2cnccc2C(=O)Nc2nc(-c3ccccc3)cs2)c1,> 65
9,CC(C)(C)OC(=O)N1CCN(c2ccc(NCc3ccc(-c4ccc(C#N)cc4)o3)cc2)CC1,9.31
10,O=C(NCC1CCN(Cc2cccc(Cl)c2)CC1)Nc1ccc(F)c(Cl)c1,25.1
11,O=c1cc(-c2ccccc2)oc2cc(O)cc(O)c12,< 1
12,COc1ccc(NC(=O)c2[nH]c(C)c(C(C)=O)c2C)cc1S(=O)(=O)N1CCCCCC1,3.11
13,O=C(NC1CC1)c1ccc(CSCc2ccccc2Cl)o1,> 47
14,COc1cc(C(=O)NC2CCCc3c2[nH]c2ccccc32)cc(OC)c1OC (stereo unspecified),7.26
15,COc1cccc(NS(=O)(=O)c2ccc(C)cc2)c1C(=O)Nc1nc(-c2ccccc2)cs1,< 1
16,COC(=O)Nc1nc2ccc(Sc3ccccc3)cc2[nH]1,< 1
17,CCn1c(SCc2ccc(C#N)cc2)nnc1-c1cccc(Cl)c1,34.2
18,Cc1ccc(-c2cc(C(=O)Nc3ccc(S(=O)(=O)Nc4ccc(C#N)cc4)cc3)c3ccccc3n2)cc1C,3.79
19,O=C(NCC1CCOCC1)C1CC(=O)N(c2n[nH]c3cc(Br)ccc23)C1 (stereo unspecified),25.3
20,O=S(=O)(Nc1ccc(-c2cccnc2)c2cccnc12)c1cccc(C(F)(F)F)c1,< 1
21,O=C(NC1CC1)C1CCCN1C(=O)c1cccc(-c2ccccn2)c1 (stereo unspecified),> 74
22,Cc1c(C(=O)NN2CCCCC2)nn(-c2ccc(Cl)cc2Cl)c1-c1ccc(Cl)cc1,< 1
23,O=C(Nc1ccc(OC(F)(F)F)cc1)c1sccc1NCc1ccnc2ccccc12,< 1
